Measurements reported in the supplement of paper PMC10307832.

Columns and labels:
Assay in all cases: relative viability (nuclei count vs DMSO), 5 days (fraction); higher = more cells survive
Mirin + Foretinib = compound: N=C1NC(=O)/C(=C/c2ccc(O)cc2)S1 [Mirin] + COc1cc2c(Oc3ccc(NC(=O)C4(C(=O)Nc5ccc(F)cc5)CC4)cc3F)ccnc2cc1OCCCN1CCOCC1 [Foretinib] (partner 0.25 µM)
Summary of the method: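 For relative viability, nuclei counts in treated wells were divided by those in vehicle wells. Lung cancer cell lines had been pin-tool dosed in 1536-well plates the day after seeding and cultured for 5 days, then fixed and stained in one step (final 0.05% Triton X-100, 1% formaldehyde, 1 ug/ml Hoechst) and imaged at 4×. Doses were one drug alone or a fixed anchor-drug dose plus five library-drug doses (not always all listed) in √10 steps, and values are duplicate-plate medians.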

[1] = compound: CCC1=CN=CN=C1N2CCN(CC2)CC3=NC4=C(N3)C=C(C=C4)C(F)(F)F
Summary of the method: (§1)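 Viability here means nuclei in treated wells divided by nuclei in vehicle wells, reported as the median across plates. Only plates with control CV below 25% and at least one doubling passed. Lung cancer cell lines in 1536-well plates were exposed to five √10-spaced library-drug doses for 5 days and counted from 4× Hoechst images in MetaXpress.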

[2] = compound: CCn1c(-c2nonc2N)nc2cnc(Oc3cccc(NC(=O)c4ccc(OCCN5CCOCC5)cc4)c3)cc21
Summary of the method: as §1

Mirin = compound: N=C1NC(=O)/C(=C/c2ccc(O)cc2)S1 [Mirin]
Summary of the method: as §1

Cell Line	relative viability (Mirin + Foretinib; first compound 0.25 µM)	relative viability (Mirin + Foretinib; first compound 0.7906 µM)	relative viability (Mirin + Foretinib; first compound 2.5 µM)	relative viability (Mirin + Foretinib; first compound 7.906 µM)	relative viability (Mirin + Foretinib; first compound 25 µM)	relative viability ([1]; 0.04 µM)	relative viability ([1]; 0.1265 µM)	relative viability ([1]; 0.4 µM)	relative viability ([1]; 1.265 µM)	relative viability ([1]; 4 µM)	relative viability ([2]; 0.04 µM)	relative viability ([2]; 0.1265 µM)	relative viability ([2]; 0.4 µM)	relative viability ([2]; 1.265 µM)	relative viability ([2]; 4 µM)	relative viability (Mirin; 0.25 µM)	relative viability (Mirin; 0.7906 µM)	relative viability (Mirin; 2.5 µM)	relative viability (Mirin; 7.906 µM)	relative viability (Mirin; 25 µM)
NCI-H1355	0.67	1	0.967	0.971	0.918	1.01	0.935	0.918	0.931	1.04	1.04	1	0.776	0.632	0.487	0.997	0.982	0.949	0.942	1.08
EKVX	0.757	0.73	0.848	0.735	0.932	1.03	0.806	0.933	0.782	1.04	1.24	0.957	0.932	0.87	0.855	0.962	0.905	1.09	0.925	0.986
NCI-H460	1.08	1.04	0.999	1.04	1.08	0.998	0.956	0.971	0.926	0.972	1.06	0.945	0.852	0.337	0.36	1.04	0.954	1.02	0.992	1.02
NCI-H1975	0.934	0.914	0.98	0.919	0.973	1.04	0.951	0.931	0.844	0.942	0.824	0.636	0.49	0.427	0.304	1.07	1.03	0.94	1.01	0.979
HCC-78	0.538	0.636	0.535	0.615	0.584	0.875	0.894	0.888	0.746	0.756	1.2	1.08	0.75	0.955	1.16	0.887	0.838	1.11	0.894	1.09
NCI-H2085	0.948	0.999	0.941	1.1	1	0.896	0.912	0.949	0.918	0.972	1.09	0.919	0.826	0.778	0.765	0.981	0.979	1.01	0.957	0.99
H3255	1.11	0.825	0.929	0.676	0.998	0.97	0.95	0.913	0.874	0.919	1.14	1.01	0.898	0.67	0.732	0.982	0.962	0.992	0.936	1
NCI-H2126	1.35	1.02	1.31	1.16	1.13	1	0.977	0.969	0.891	1.02	1.09	1.04	0.74	0.792	0.943	1.03	0.908	0.995	1	0.979
LC-2-ad	0.97	1	0.988	0.907	0.759	1	0.947	0.973	0.871	0.92	1.06	0.906	0.654	0.525	0.524	1.02	0.848	0.964	0.824	1.04
RERF-LC-KJ	0.974	0.915	0.932	0.892	0.901	0.956	0.968	1.01	0.924	0.991	1.02	0.971	0.872	0.619	0.637	1.07	1.08	1.01	1.04	1
EBC-1	0.103	0.116	0.102	0.102	0.0881	1.08	1.01	0.986	0.946	0.996	1.24	1.01	0.913	0.904	0.797	1.09	1.19	1.05	0.987	0.665
HCC-15	1.1	1	1.06	0.819	0.882	0.999	0.946	0.934	0.897	1.04	1.12	0.964	0.844	0.77	0.911	1.06	0.798	0.979	0.884	0.953
NCI-H1563	0.962	0.974	0.865	1.03	0.875	0.956	0.965	0.953	0.9	1	0.853	0.872	0.868	0.86	0.778	1.03	1.21	0.995	0.942	0.951
COR-L 105	1.06	0.865	1.25	1.17	0.781	0.875	0.932	0.978	0.746	0.906	0.919	0.776	0.761	0.43	0.443	1.09	1.12	1.06	1.02	0.833
NCI-H596	0.826	0.953	1.03	0.916	1.08	1.01	0.935	0.882	0.736	1.08	1.01	0.869	0.799	0.865	0.83	0.996	1	1.02	1.02	0.973
LU99A	0.71	0.631	0.795	0.71	0.566	1.14	0.904	0.902	0.821	0.92	1.02	0.694	0.67	0.536	0.504	0.997	0.783	0.922	0.864	0.857
